Measurements as given in patent US20260166012A1 (MEDINNO PHARMACEUTICAL TECHNOLOGY (ZHUHAI) CO., LTD., priority 2023, published 2026).

Tests used:
JAK1 = JAK1 (Homo sapiens, UniProt P23458); experiment: ADP-Glo kinase inhibition assay, JAK1
Excerpt: (§1) A drug screening system based on kinases JAK1, JAK2, JAK3, and TYK2 was used to detect the inhibitory ability of small molecule compounds on kinase activity. A kinase undergoes an enzymatic reaction with its substrates IRS1, IGF1Rtide, and Poly (4:1 Glu, Tyr), consuming ATP to produce ADP, wherein the ADP-Glo reagent and luminescence method were used to detect the amount of the product to reflect the activity of the kinase.
(§2) For TYK2 inhibition activity testing, the starting concentration was 10 μM with 1:4 serial dilution. Test compounds were used at a starting concentration of 0.5 μM with 1:4 serial dilution.
(§3) Transfer 4 μL of ADP-Glo reagent to the 384-well plate, which was centrifuged at 1000 rpm for 1 minute, and incubated at 25° C. for 40 minutes.
(§4) Transfer 8 μL of the test solution to the 384-well plate, which was centrifuged at 1000 rpm for 1 minute, and incubated at 25° C. for 40 minutes.
(§5) Read luminescence signals using a multimode microplate reader.
(§6) [formula] • Negative Control: DMSO • Positive Control: Tofacitinib
(§7) The following nonlinear regression equation was used to determine the compound's IC50(half-maximal inhibitory concentration). Data analysis was performed using GraphPad Prism 7.0 software.
(§8) [formula] • X: Logarithm of compound concentration; and Y: Inhibition rate (% Inhibition)

JAK2 = JAK2 (Homo sapiens, UniProt O60674); experiment: ADP-Glo kinase inhibition assay, JAK2
Excerpt: as §1, §2, §3, §4, §5, §6, §7, §8

JAK3 = JAK3 (Homo sapiens, UniProt P52333); experiment: ADP-Glo kinase inhibition assay, JAK3
Excerpt: as §1, §2, §3, §4, §5, §6, §7, §8

TYK2 = biological target: T1, TYK2 (Homo sapiens, UniProt P29597); experiment: ADP-Glo kinase inhibition assay, TYK2
T1 sequence (P29597 897-1187 limits assumed): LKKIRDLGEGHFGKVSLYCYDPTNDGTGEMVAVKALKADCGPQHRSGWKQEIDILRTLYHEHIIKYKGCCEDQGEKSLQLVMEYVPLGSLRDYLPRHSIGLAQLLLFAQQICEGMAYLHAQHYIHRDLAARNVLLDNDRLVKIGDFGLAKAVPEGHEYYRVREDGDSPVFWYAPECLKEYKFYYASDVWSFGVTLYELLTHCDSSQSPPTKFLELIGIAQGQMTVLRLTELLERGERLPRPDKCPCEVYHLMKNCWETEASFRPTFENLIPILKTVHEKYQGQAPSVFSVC
Excerpt: as §1, §2, §3, §4, §5, §6, §7, §8

[1] = system: itching caused by allergic dermatitis; conditions: dogs, cited from earlier work

Chain of JAK2 (O60674 826-1132 limits assumed): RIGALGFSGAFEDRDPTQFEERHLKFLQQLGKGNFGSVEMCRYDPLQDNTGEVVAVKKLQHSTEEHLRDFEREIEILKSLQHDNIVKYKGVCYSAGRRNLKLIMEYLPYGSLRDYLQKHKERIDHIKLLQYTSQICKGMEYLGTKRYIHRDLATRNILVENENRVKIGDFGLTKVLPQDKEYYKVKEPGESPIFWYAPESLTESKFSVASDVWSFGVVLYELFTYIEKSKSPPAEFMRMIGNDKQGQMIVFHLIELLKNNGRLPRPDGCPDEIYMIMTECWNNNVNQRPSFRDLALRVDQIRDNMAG
Chain of JAK3 (P52333 795-1124 limits assumed): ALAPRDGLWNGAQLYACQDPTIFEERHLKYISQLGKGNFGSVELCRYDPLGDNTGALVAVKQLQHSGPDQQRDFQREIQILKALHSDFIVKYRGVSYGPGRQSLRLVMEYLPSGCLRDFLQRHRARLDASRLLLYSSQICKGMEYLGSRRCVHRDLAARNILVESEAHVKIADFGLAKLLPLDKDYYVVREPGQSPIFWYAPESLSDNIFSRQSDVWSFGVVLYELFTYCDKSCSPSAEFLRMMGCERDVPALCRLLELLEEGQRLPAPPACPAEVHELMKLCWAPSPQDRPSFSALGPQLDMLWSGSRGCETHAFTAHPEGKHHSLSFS
Chain of JAK1 (P23458 850-1154 limits assumed): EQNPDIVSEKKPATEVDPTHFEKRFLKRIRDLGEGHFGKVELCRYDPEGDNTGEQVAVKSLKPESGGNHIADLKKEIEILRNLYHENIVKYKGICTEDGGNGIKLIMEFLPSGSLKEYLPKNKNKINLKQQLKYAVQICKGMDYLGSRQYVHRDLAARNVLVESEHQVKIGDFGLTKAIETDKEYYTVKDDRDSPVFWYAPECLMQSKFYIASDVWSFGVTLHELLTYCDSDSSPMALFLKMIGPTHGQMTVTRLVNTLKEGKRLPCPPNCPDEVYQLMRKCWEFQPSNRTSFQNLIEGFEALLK

SMILES | IC50 (JAK1) [nM] | IC50 (JAK2) [nM] | IC50 (JAK3) [nM] | IC50 (TYK2) [nM] | experimental animals that alleviated the itching response by more than 50% ([1]; on the 7th day) | time to relieve itching ([1]; oral 0.4-0.6 mg/kg twice a day) [h]
[2H]C([2H])([2H])c1cc(O)c(F)cc1-c1ccc2c(-c3nc4c([nH]3)CN(C(=O)NC[C@@H](C)O)C4)n[nH]c2c1 [Compound 1, (R)-2-(6-(5-Fluoro-4-hydroxy-2-(methyl-d3)phenyl)-1H-indazol-3-yl)-N-(2-hydroxypropyl)-4,6-dihydropyrrolo[3,4-d]imidazole-5(1H)-carboxamide] | 0.096 | 0.013 | 0.2 | 0.8 | – | –
[2H]C([2H])([2H])c1cc(O)c(F)cc1-c1ccc2c(-c3nc4c([nH]3)CN(C(=O)C3CC3)C4)n[nH]c2c1 [Compound 2, Cyclopropyl (2-(6-(5-fluoro-4-hydroxy-2-(methyl-d3)phenyl)-1H-indazol-3-yl)-4,6-dihydropyrrolo[3,4-d]imidazol-5(1H)-yl) ketone] | 0.19 | 0.017 | 0.28 | 1.2 | – | –
[2H]C([2H])([2H])c1cc(O)c(F)cc1-c1ccc2c(-c3nc4c([nH]3)CN(C(=O)NC[C@H](C)O)C4)n[nH]c2c1 [Compound 4, (S)-2-(6-(5-Fluoro-4-hydroxy-2-(methyl-d3)phenyl)-1H-indazol-3-yl)-N-(2-hydroxypropyl)-4,6-dihydropyrrolo[3,4-d]imidazole-5(1H)-carboxamide] | 0.1 | 0.015 | 0.26 | 1 | – | –
[2H]C([2H])([2H])c1cc(O)c(F)cc1-c1ccc2c(-c3nc4c([nH]3)CN(C(=O)NC)C4)n[nH]c2c1 [Compound 13] | 0.077 | 0.012 | 0.22 | 0.43 | – | –
[2H]C([2H])([2H])c1cc(O)c(F)cc1-c1ccc2c(-c3nc4c([nH]3)CN(C(=O)NCC(C)O)C4)n[nH]c2c1 (stereo not shown) [Compound 5, 2-(6-(5-Fluoro-4-hydroxy-2-(methyl-d3)phenyl)-1H-indazol-3-yl)-N-(2-hydroxypropyl)-4,6-dihydro-pyrrolo[3,4-d]imidazole-5(1H)-carboxamide] | 0.2 | 0.01 | 0.3 | 1.6 | – | –
[2H]C([2H])([2H])c1cc(O)c(F)cc1-c1ccc2c(-c3nc4c([nH]3)CN(C(=O)NCCCO)C4)n[nH]c2c1 [Compound 7, 2-(6-(5-Fluoro-4-hydroxy-2-(methyl-d3)phenyl)-1H-indazol-3-yl)-N-(3-hydroxypropyl)-4,6-dihydropyrrolo[3,4-d]imidazole-5(1H)-carboxamide] | 0.07 | 0.014 | 0.25 | 0.53 | – | –
[2H]C([2H])([2H])c1cc(O)c(F)cc1-c1ccc2c(-c3nc4c([nH]3)CN(C(=O)N3CCOCC3)C4)n[nH]c2c1 [Compound 10] | 0.092 | 0.0097 | 0.3 | 0.37 | – | –
[2H]C([2H])([2H])c1cc(O)c(F)cc1-c1ccc2c(-c3nc4c([nH]3)CN(C(=O)N(C)C)C4)n[nH]c2c1 [Compound 9, 2-(6-(5-Fluoro-4-hydroxy-2-(methyl-d3)phenyl)-1H-indazol-3-yl)-N,N-dimethyl-4,6-dihydropyrrolo[3,4-d]imidazole-5(1H)-carboxamide] | 0.071 | 0.008 | 0.32 | 0.43 | – | –
[2H]C([2H])([2H])c1cc(O)c(F)cc1-c1ccc2c(-c3nc4c([nH]3)CN(C(=O)OC)C4)n[nH]c2c1 [Compound 18] | – | 0.61 | – | – | – | –
CNS(=O)(=O)C[C@H]1CC[C@H](N(C)c2ncnc3[nH]ccc23)CC1 [Olatinib] | – | – | – | – | more than 70% | ≤ 24
[2H]C([2H])([2H])c1cc(O)c(F)cc1-c1ccc2c(-c3nc4c([nH]3)CN(C)C4)n[nH]c2c1 [Compound 12, 2-Fluoro-5-(methyl-d3)-4-(3-(5-methyl-1,4,5,6-tetrahydropyrrolo[3,4-d]imidazol-2-yl)-1H-indazol-6-yl)phenol] | 1.8 | – | – | – | – | –
[2H]C([2H])([2H])c1cc(O)c(F)cc1-c1ccc2c(-c3nc4c([nH]3)CN(CC(C)O)C4)n[nH]c2c1 (stereo in doubt) [Compound 28] | 0.43 | 0.05 | 1 | 6.4 | – | –

Second part, led by results:

IC50 (JAK1) [nM] | IC50 (JAK2) [nM] | IC50 (JAK3) [nM] | IC50 (TYK2) [nM] | SMILES | experimental animals that alleviated the itching response by more than 50% ([1]; on the 7th day) | time to relieve itching ([1]; oral 0.4-0.6 mg/kg twice a day) [h]
0.032 | 0.005 | 0.18 | 0.3 | [2H]C([2H])([2H])c1cc(O)c(F)cc1-c1ccc2c(-c3nc4c([nH]3)CN(C(=O)N3CCC(O)CC3)C4)n[nH]c2c1 [Compound 19] | – | –
0.045 | 0.004 | 0.16 | 0.19 | [2H]C([2H])([2H])c1cc(O)c(F)cc1-c1ccc2c(-c3nc4c([nH]3)CN(C(=O)N3CC[C@@H](O)C3)C4)n[nH]c2c1 [Compound 8, (R)-(2-(6-(5-Fluoro-4-hydroxy-2-(methyl-d3)phenyl)-1H-indazol-3-yl)-4,6-dihydropyrrolo[3,4-d]imidazole-5(1H)-yl)(3-hydroxypyrrolidin-1-yl)ketone] | – | –
0.0075 | 0.0088 | 0.095 | 0.085 | [2H]C([2H])([2H])C([2H])([2H])c1cc(O)c(F)cc1-c1ccc2c(-c3nc4c([nH]3)CN(C(=O)N3CC[C@@H](O)C3)C4)n[nH]c2c1 [Compound 35] | – | –
0.086 | 0.013 | 0.19 | 0.32 | [2H]C([2H])([2H])c1cc(O)c(F)cc1-c1ccc2c(-c3nc4c([nH]3)CN(C(=O)N3CC[C@H](O)C3)C4)n[nH]c2c1 [Compound 6, (S)-(2-(6-(5-Fluoro-4-hydroxy-2-(methyl-d3)phenyl)-1H-indazol-3-yl)-4,6-dihydropyrrolo[3,4-d]imidazole-5(1H)-yl)(3-hydroxypyrrolidin-1-yl)ketone] | – | –
0.0072 | 0.015 | 0.044 | 0.022 | [2H]C([2H])([2H])C([2H])([2H])c1cc(O)c(F)cc1-c1ccc2c(-c3nc4c([nH]3)CN(C(=O)N3CC[C@H](O)C3)C4)n[nH]c2c1 [Compound 3, (S)-(2-(6-(2-(Ethyl-d5)-5-fluoro-4-hydroxyphenyl)-1H-indazol-3-yl)-4,6-dihydropyrrolo[3,4-d]imidazol-5(1H)-yl) (3-hydroxypyrrolidin-1-yl) ketone methanesulfonate] | – | –
0.025 | 0.032 | 0.2 | 0.3 | [2H]C([2H])([2H])C([2H])([2H])c1cc(O)c(F)cc1-c1ccc2c(-c3nc4c([nH]3)CN(C(=O)N(C)C)C4)n[nH]c2c1 [Compound 32] | – | –
